The conditions of data set [1]: cited from earlier work.
The nature of data set [2]: Solubility of nintedanib in various solubilizers. The class given is physicochemical. On the procedure: Tare 1.5 mL Eppendorf tube 2. […] Add solubilizer and record weight 4. Add water pH 5 (except F3 & F4) and record weight 5. Beadbeater mix for 120 seconds 6. Place on rotating mixer for overnight at ambient temperature 7. Filter through 0.2 μm SPIN-X centrifuge filter 8. Measure pH of filtrate 9. Assay filtrate using CBT-001 standard solution [table]

For data set [3], the system named is rabbit glaucoma filtration surgery model. Kind of data set: Rabbit glaucoma filtration surgery model. The class given is in vivo, New Zealand White rabbits. Particulars: vs vehicle.
Data set [4] can be described thus: Solubility of nintedanib in a representative water-based emulsion system. The class given is physicochemical. Conditions: for solubility: water-based emulsion, aqueous with cosolvent or surfactant or cyclodextrin, Nintedanib solubility.
Data set [5] is described as follows: Solubility in water (reported). Format: physicochemical.
Data set [6] can be described thus: Regorafenib concentration and degradation in F6H8 suspension by HPLC. The class given is physicochemical. As for the experimental part: The Suspension was homogenized by stirring at room temperature for 15 minutes. […] The observed fluctuation was most likely due to inhomogeneity of the sample after manual shaking of the suspension.
[…] were injected into an Agilent 1100 HPLC system (Agilent, Waldbronn, Germany), and samples were run on a heated (40° C.) Symmetry C18 column (150×4.6 mm-3.5 um particle size, Waters, Eschborn, Germany) applying a flow rate of 1 ml/min. The mobile phase consisted of a mixture of potassium phosphate buffer pH 2.4 (A) and acetonitrile/ethanol (6/4) (B). The following gradient was applied: minute 0: A, 60%/B, 40%: minute 12: A, 20%/B, 80%: minute 16: A, 20%/B, 80%: minute 16.5: A, 60%/B, 40%: minute 20: A, 60%/B, 40%.

Setting [7] is: water-based emulsion of castor oil, polysorbate 80 and polyoxyl-35 castor oil.

≈ marks a conversion by molar mass, not a printed value. A value given as a limit tells only on which side of the number the result lay.

Broadly, the solubility is the dissolved amount per volume that the medium holds. A low value points to a poorly soluble substance. Regarding `COC(=O)c1ccc2c(c1)NC(=O)/C2=C(\Nc1ccc(N(C)C(=O)CN2CCN(C)CC2)cc1)c1ccccc1` [Nintedanib, nintedanib], the “reported solubility in water” value in data set [1] (water) is “less than 0.01 mg/mL”. Besides, the Nintedanib solubility in data set [2] (solubilizer BZA, filtrate pH 5.6) is reported as 0.01 mg/g; in data set [2] (solubilizer BZK, filtrate pH 5.6), 0.20 mg/g; in data set [2] (solubilizer Castor oil), 0.37 mg/g; in data set [2] (solubilizer EtOH, filtrate pH 6.1) it was 0.01 mg/g; in data set [2] (solubilizer Mineral oil) it was 0.00 mg/g; in data set [2] (solubilizer PEG 400, filtrate pH 5.6), 0.17 mg/g. Also, the Nintedanib solubility in data set [2] (solubilizer PEG 8000, filtrate pH 6.0) was 0.01 mg/g; in data set [2] (solubilizer PG, filtrate pH 6.0), 0.01 mg/g; in data set [2] (solubilizer PLXMR 188, filtrate pH 6.5), 0.01 mg/g; in data set [2] (solubilizer PLXMR 407, filtrate pH 6.3) it was 0.01 mg/g; in data set [2] (solubilizer polysorbate 20, filtrate pH 6.6), 0.06 mg/g; in data set [2] (solubilizer polysorbate 80, filtrate pH 6.7), 0.25 mg/g. The fibroblast density result in data set [3] (group 3: 0.3% emulsion BID minus Day 7-Day 30, rabbit) was “trend of reduction not statistically significant”; in data set [3] (group 4: 0.3% emulsion BID Day 1-Day 30, rabbit), “significant reduction”. Moreover, the “nintedanib dissolved by the emulsion system” value in data set [4] (setting [7]) lay within 3 to 5 mg/mL. The “ophthalmic emulsion concentration of nintedanib” value in data set [4] (setting [7]) is 0.3%-0.5. Also, the solubility in data set [4] (emulsion F70 lot 1: castor oil 1, polysorbate 80 1, polyoxyl-35 castor oil 2, water 95) came to 5000 µg/mL (≈ 9.27 mM); in data set [4] (emulsion F70 lot 2: castor oil 1, polysorbate 80 1, polyoxyl-35 castor oil 2, water 95), 3400 µg/mL (≈ 6.3 mM). Also, the “reported solubility in water, as percent” value in data set [5] was less than 0.001%.

For `CNC(=O)c1ccccc1Sc1ccc2c(/C=C/c3ccccn3)n[nH]c2c1` [Axitinib, axitinib], in data set [1] (water at neutral pH), the solubility in water was 0.2 mg/mL (≈ 0.517 mM).

`CNC(=O)c1cc(Oc2ccc(NC(=O)Nc3ccc(Cl)c(C(F)(F)F)c3)c(F)c2)ccn1` [Regorafenib, regorafenib]: the “degradation products in HPLC chromatograms” value in data set [6] (400 mg micronized regorafenib monohydrate suspended in 20 ml F6H8) is “No unidentified degradation product was observed”. Moreover, in data set [6] (400 mg micronized regorafenib monohydrate suspended in 20 ml F6H8, HPLC), the “Measured regorafenib concentration, % of theoretical concentration” value was 95.4-99.1%.

Source of the values: patent US20230210770A1, “TOPICAL OPHTHALMOLOGICAL COMPOSITIONS AND METHODS FOR TREATING ABNORMAL ANGIOGENESIS” (ADS THERAPEUTICS LLC, priority 2020, published 2023).
